The structures appear in SMILES notation.

The assay has as its target human PCSK9 (Homo sapiens, UniProt Q8NBP7). The assay can be described thus: PCSK9 ligand binding TR-FRET assay (interference with binding of human PCSK9 to human LDLR). As to conditions: for Max % inhibition: PCSK9 FRET assay, efficacy (Amax), 100% = 1 uM unlabeled human PCSK9, 0% = DMSO; for IC50: TR-FRET, human PCSK9 Alexa Fluor 647 / human LDLR extracellular domain-Europium Kryptate, read-out: PCSK9 FRET Assay IC50. A digest of the protocol: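 Threefold compound dilutions were pre-incubated 30 min with PCSK9, after which 4 nM Europium Kryptate-tagged human LDLR ectodomain was added for a further 2 h.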
A general note: Time-resolved FRET reads energy transfer from a long-lived donor to a nearby acceptor.

human PCSK9, sequence (Q8NBP7 153-692): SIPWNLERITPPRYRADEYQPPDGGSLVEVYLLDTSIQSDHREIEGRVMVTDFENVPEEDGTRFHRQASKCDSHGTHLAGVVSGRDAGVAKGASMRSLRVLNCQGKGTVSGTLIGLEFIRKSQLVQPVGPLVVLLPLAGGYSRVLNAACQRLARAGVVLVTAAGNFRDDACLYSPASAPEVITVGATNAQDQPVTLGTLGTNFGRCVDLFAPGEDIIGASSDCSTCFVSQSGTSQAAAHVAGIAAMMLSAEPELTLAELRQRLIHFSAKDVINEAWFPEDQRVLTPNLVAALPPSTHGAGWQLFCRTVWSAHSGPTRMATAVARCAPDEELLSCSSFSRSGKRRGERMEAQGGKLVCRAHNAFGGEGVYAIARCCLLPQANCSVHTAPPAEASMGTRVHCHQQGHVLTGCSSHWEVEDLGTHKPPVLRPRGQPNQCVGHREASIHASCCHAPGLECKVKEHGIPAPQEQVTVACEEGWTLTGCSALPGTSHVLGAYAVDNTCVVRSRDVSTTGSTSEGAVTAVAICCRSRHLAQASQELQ
human PCSK9, sequence (Q8NBP7 31-152 partner limits assumed): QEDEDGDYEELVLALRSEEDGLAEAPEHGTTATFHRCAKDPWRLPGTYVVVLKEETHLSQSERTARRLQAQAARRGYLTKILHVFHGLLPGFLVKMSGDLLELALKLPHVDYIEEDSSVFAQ

Consider `COC[C@@H]1NC(=O)[C@H](C)N(Cc2ccc(Cl)cc2Oc2ccc(-c3cnc(CN(C)C)n3C)cc2)C(=O)C[C@@H](Cc2ccccc2)C(=O)N(C)C[C@H](C)NC(=O)C[C@H](Cc2ccc(Cl)cc2)N(C)C1=O` [Compound 32, (2S,5S,8S,12S,16R)-16-benzyl-1-(4-chloro-2-(4-(2-((dimethylamino)methyl)-1-methyl-1H-imidazol-5-yl)phenoxy)benzyl)-8-(4-chlorobenzyl)-5-(methoxymethyl)-2,7,12,14-tetramethyl-1,4,7,11,14-pentaazacyclooctadecane-3,6,10,15,18-pentaone], for which the Max % inhibition came out at 103.15% and the 50% inhibitory concentration (IC50) (usually the concentration at which inhibition is half-maximal) stood at 1.8 nM.
As for `COC[C@@H]1NC(=O)[C@H](C)N(Cc2ccc(Cl)cc2Oc2ccc(-c3cnc(CN(C)C)n3C)cc2)C(=O)C[C@@H](Cc2ccc(F)c(F)c2F)C(=O)N(C)[C@@H](C)CNC(=O)C[C@H](Cc2ccc(Cl)cc2)N(C)C1=O` [Compound 33, (2S,5S,8S,13S,16R)-1-(4-chloro-2-(4-(2-((dimethylamino)methyl)-1-methyl-1H-imidazol-5-yl)phenoxy)benzyl)-8-(4-chlorobenzyl)-5-(methoxymethyl)-2,7,13,14-tetramethyl-16-(2,3,4-trifluorobenzyl)-1,4,7,11,14-pentaazacyclooctadecane-3,6,10,15,18-pentaone], the Max % inhibition is 95.65% and the 50% inhibitory concentration (IC50) was 1.3 nM.
The matching figures for `COC[C@@H]1NC(=O)[C@H](C)N(Cc2c(F)cc(Cl)cc2Oc2ccc(-c3cnc(CN4CCCC4)n3C)cc2)C(=O)C[C@@H](Cc2ccccc2)C(=O)N(C)[C@@H](C)CNC(=O)C[C@H](Cc2ccc(Cl)cc2)N(C)C1=O` [Compound 34, (2S,5S,8S,13S,16R)-16-benzyl-1-(4-chloro-2-fluoro-6-(4-(1-methyl-2-(pyrrolidin-1-ylmethyl)-1H-imidazol-5-yl)phenoxy)benzyl)-8-(4-chlorobenzyl)-5-(methoxymethyl)-2,7,13,14-tetramethyl-1,4,7,11,14-pentaazacyclooctadecane-3,6,10,15,18-pentaone]: 95.86% and 1 nM.
The matching figures for `COC[C@@H]1NC(=O)[C@H](C)N(Cc2ccc(OC(F)(F)F)cc2Oc2ccc(-c3cnc(CN(C)C)n3C)cc2)C(=O)C[C@@H](Cc2ccccc2)C(=O)N(C)[C@@H](C)CNC(=O)C[C@H](Cc2ccc(Cl)cc2)N(C)C1=O` [Compound 35, (2S,5S,8S,13S,16R)-16-benzyl-8-(4-chlorobenzyl)-1-(2-(4-(2-((dimethylamino)methyl)-1-methyl-1H-imidazol-5-yl)phenoxy)-4-(trifluoromethoxy)benzyl)-5-(methoxymethyl)-2,7,13,14-tetramethyl-1,4,7,11,14-pentaazacyclooctadecane-3,6,10,15,18-pentaone]: 104.05% and 4.2 nM.
Turning to `COC[C@@H]1NC(=O)[C@H](CC(F)(F)F)N(Cc2ccc(Cl)cc2Oc2ccc(-c3cnc(CN(C)C)n3C)cc2)C(=O)C[C@@H](Cc2ccccc2)C(=O)N(C)[C@@H](C)CNC(=O)C[C@H](Cc2ccc(Cl)cc2)N(C)C1=O` [Compound 37, (2S,5S,8S,13S,16R)-16-benzyl-1-(4-chloro-2-(4-(2-((dimethylamino)methyl)-1-methyl-1H-imidazol-5-yl)phenoxy)benzyl)-8-(4-chlorobenzyl)-5-(methoxymethyl)-7,13,14-trimethyl-2-(2,2,2-trifluoroethyl)-1,4,7,11,14-pentaazacyclooctadecane-3,6,10,15,18-pentaone], the Max % inhibition turned out to be 100.65% and the IC50 stood at 2.3 nM.
For `COC[C@@H]1NC(=O)[C@H](CC(=O)N2CCOCC2)N(Cc2ccc(Cl)cc2Oc2ccc(-c3cnc(CN(C)C)n3C)cc2)C(=O)C[C@@H](Cc2ccccc2)C(=O)N(C)[C@@H](C)CNC(=O)C[C@H](Cc2ccc(Cl)cc2)N(C)C1=O` [Compound 38, (2S,5S,8S,13S,16R)-16-benzyl-1-(4-chloro-2-(4-(2-((dimethylamino)methyl)-1-methyl-1H-imidazol-5-yl)phenoxy)benzyl)-8-(4-chlorobenzyl)-5-(methoxymethyl)-7,13,14-trimethyl-2-(2-morpholino-2-oxoethyl)-1,4,7,11,14-pentaazacyclooctadecane-3,6,10,15,18-pentaone], the Max % inhibition is listed as 101.48% and the half-inhibitory concentration (IC50) was found to be 2.1 nM.
As to `COC[C@@H]1NC(=O)[C@H](C)N(Cc2c(OCC(F)(F)F)cc(Cl)cc2Oc2ccc(-c3cnc(CN(C)C)n3C)cc2)C(=O)CCC(=O)N(C)[C@H]2CCCC[C@@H]2NC(=O)C[C@H](Cc2ccc(Cl)cc2)N(C)C1=O` [Compound 39, (4S,7S,10S,16aS,20aS)-11-(4-chloro-2-(4-(2-((dimethylamino)methyl)-1-methyl-1H-imidazol-5-yl)phenoxy)-6-(2,2,2-trifluoroethoxy)benzyl)-4-(4-chlorobenzyl)-7-(methoxymethyl)-5,10,16-trimethylhexadecahydrobenzo[l][1,4,7,11,14]pentaazacyclooctadecine-2,6,9,12,15(3H)-pentaone], the Max % inhibition came to 104.01% and the half-inhibitory concentration (IC50) was 0.9 nM.
As for `CCC(CC)[C@@H]1CC(=O)N(Cc2ccc(Cl)cc2Oc2ccc(-c3cnc(CN(C)C)n3C)cc2)[C@@H](C)C(=O)N[C@@H](COC)C(=O)N(C)[C@@H](Cc2ccc(Cl)cc2)CC(=O)NC[C@H](C)N(C)C1=O` [Compound 40, (2S,5S,8S,13S,16S)-1-(4-chloro-2-(4-(2-((dimethylamino)methyl)-1-methyl-1H-imidazol-5-yl)phenoxy)benzyl)-8-(4-chlorobenzyl)-5-(methoxymethyl)-2,7,13,14-tetramethyl-16-(pentan-3-yl)-1,4,7,11,14-pentaazacyclooctadecane-3,6,10,15,18-pentaone], the Max % inhibition is 104.99% and the IC50 was found to be 99.6 nM.
`COC[C@@H]1NC(=O)C(C)N(Cc2c(F)cc(F)cc2Oc2ccc(-c3cnc(CN(C)C)n3C)cc2)C(=O)C[C@@H](Cc2ccccc2)C(=O)N(C)[C@H]2CCCC[C@@H]2NC(=O)C[C@H](Cc2ccc(Cl)cc2)N(C)C1=O` (stereo partly drawn) [Compound 41, (4S,7S,14R,16aS,20aS)-14-benzyl-4-(4-chlorobenzyl)-11-(2-(4-(2-((dimethylamino)methyl)-1-methyl-1H-imidazol-5-yl)phenoxy)-4,6-difluorobenzyl)-7-(methoxymethyl)-5,10,16-trimethylhexadecahydrobenzo[l][1,4,7,11,14]pentaazacyclooctadecine-2,6,9,12,15(3H)-pentaone]: the Max % inhibition amounted to 84.34% and the half-maximal inhibitory concentration (IC50) turned out to be 4.7 nM.
`COC[C@@H]1NC(=O)[C@H](C)N(Cc2ccc(C(F)F)cc2Oc2ccc(-c3cnc(CN(C)C)n3C)cc2)C(=O)C[C@@H](Cc2ccccc2)C(=O)N(C)[C@@H](C)CNC(=O)C[C@H](Cc2ccc(Cl)cc2)N(C)C1=O` [Compound 42, (2S,5S,8S,13S,16R)-16-benzyl-8-(4-chlorobenzyl)-1-(4-(difluoromethyl)-2-(4-(2-((dimethylamino)methyl)-1-methyl-1H-imidazol-5-yl)phenoxy)benzyl)-5-(methoxymethyl)-2,7,13,14-tetramethyl-1,4,7,11,14-pentaazacyclooctadecane-3,6,10,15,18-pentaone]: the Max % inhibition worked out at 102.18% and the half-maximal inhibitory concentration (IC50) turned out to be 24.5 nM.
The matching figures for `COC[C@@H]1NC(=O)[C@H](C)N(Cc2ccc(Cl)cc2Oc2ccc(-c3cnc(CN4CCCC4)n3C)cc2)C(=O)C[C@@H](Cc2ccccc2)C(=O)N(C)[C@@H](CCCCN(C)C)CNC(=O)C[C@H](Cc2ccc(Cl)cc2)N(C)C1=O.Cl` [Compound 43, (2S,5S,8S,13S,16R)-16-benzyl-1-(4-chloro-2-(4-(1-methyl-2-(pyrrolidin-1-ylmethyl)-1H-imidazol-5-yl)phenoxy)benzyl)-8-(4-chlorobenzyl)-13-(4-(dimethylamino)butyl)-5-(methoxymethyl)-2,7,14-trimethyl-1,4,7,11,14-pentaazacyclooctadecane-3,6,10,15,18-pentaone hydrochloride]: 94.38% and 1.8 nM.
The matching figures for `COC[C@@H]1NC(=O)[C@H](C)N(Cc2ccc(Cl)cc2Oc2ccc(-c3cnc(CN(C)C)n3C)cc2)C(=O)C[C@@H](Cc2ccc(F)cn2)C(=O)N(C)[C@@H](C)CNC(=O)C[C@H](Cc2ccc(Cl)cc2)N(C)C1=O` [Compound 45, (2S,5S,8S,13S,16R)-1-(4-chloro-2-(4-(2-((dimethylamino)methyl)-1-methyl-1H-imidazol-5-yl)phenoxy)benzyl)-8-(4-chlorobenzyl)-16-((5-fluoropyridin-2-yl)methyl)-5-(methoxymethyl)-2,7,13,14-tetramethyl-1,4,7,11,14-pentaazacyclooctadecane-3,6,10,15,18-pentaone]: 95.96% and 2.2 nM.
Turning to `COC[C@@H]1NC(=O)[C@H](CCC(=O)OC(C)(C)C)N(Cc2ccc(Cl)cc2Oc2ccc(-c3cnc(CN(C)C)n3C)cc2)C(=O)C[C@@H](Cc2ccccc2)C(=O)N(C)[C@H]2CCCC[C@@H]2NC(=O)C[C@H](Cc2ccc(Cl)cc2)N(C)C1=O` [Compound 46, tert-butyl 3-((4S,7S,10S,14R,16aS,20aS)-14-benzyl-11-(4-chloro-2-(4-(2-((dimethylamino)methyl)-1-methyl-1H-imidazol-5-yl)phenoxy)benzyl)-4-(4-chlorobenzyl)-7-(methoxymethyl)-5,16-dimethyl-2,6,9,12,15-pentaoxodocosahydrobenzo[l][1,4,7,11,14]pentaazacyclooctadecin-10-yl]propanoate], the Max % inhibition was 96.56% and the IC50 amounted to 2.7 nM.

The values above are taken from patent publication US20230089867A1, “CYCLIC PENTAMER COMPOUNDS AS PROPROTEIN CONVERTASE SUBTILISIN/KEXIN TYPE 9 (PCSK9) INHIBITORS FOR THE TREATMENT OF METABOLIC DISORDER” (Novartis AG, priority 2018, published 2023).
